We go through 22 molecules from patent US5494914A, “Inhibitors for testosterone 5α-reductase activity” (Endorecherche, priority 1994, dated 1996).

Assay [1] has as its target T1, 5α-reductase (Homo sapiens, UniProt P18405).
T1 construct: host or cells: DU 145 (human prostate carcinoma)
T1 sequence (P18405 1-259): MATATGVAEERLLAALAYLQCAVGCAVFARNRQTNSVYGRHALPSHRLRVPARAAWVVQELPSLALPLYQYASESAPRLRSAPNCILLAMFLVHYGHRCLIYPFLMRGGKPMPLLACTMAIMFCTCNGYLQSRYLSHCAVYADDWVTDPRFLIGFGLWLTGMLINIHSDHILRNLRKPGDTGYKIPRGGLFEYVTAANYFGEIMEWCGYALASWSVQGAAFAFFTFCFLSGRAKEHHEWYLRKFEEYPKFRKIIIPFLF
Description: 5α-reductase inhibition in DU 145 cells (conversion of tritiated 4-androstenedione). Type of assay: cell-based. The method, then:
Except where otherwise indicated, 5α-reductase inhibition is measured by the following method. Plates having 24 dishes per unit are used. Into each dish were placed 100,000 cells from the human carcinoma metastatic prostatic cell line DU 145 (ATCC #HTB 81) in MEM medium containing 2% dextran charcoal-treated calf serum, 1% penicillin, 1% streptomycin and 1% non essential amino acids. After 24 h, the medium was removed and replaced by 2.5 ml of MEM medium containing 2% dextran charcoal-treated calf serum, 10 nM of tritiated […] and 1% of ethanol. Each dish had different concentrations of the 5α-reductase inhibitor being tested. The cells were incubated for 24 h at 37° C. under an atmosphere of 5% CO2 saturated with water. The extracellular medium was then removed, centrifuged at 1000 RPM for 10 min., and decanted in test tubes. To these test tubes was added 100 μl of ethanol containing 25 μg of androstanedione, 25 μg of 4-androstenedione, 25 μg of dihydrotestosterone and 25 μg of testosterone. The steroids were then extracted from the mixture by two extractions with 2 ml of diethyl ether. Phase separation was achieved by freezing of the aqueous phase. The organic phase was then evaporated, thus leaving asteroid residue which was dissolved in a few drops of methylene chloride and spotted on TLC plates (Whatman WH 4420222). After developing twice with a mixture of benzene-acetone (9:1), the spots were visualized by U.V. and gaseous iodine, cut, put into separate vials for each steroid and extracted for 15 min with 1 ml of ethanol. After addition of 10 ml of scintillation cocktail (NEN 989), the vials were shaked and counted.
The 5α-reductase activity is the sum of the transformation of 4-androstenedione to androstanedione and of the transformation of testosterone to dihydrotestosterone.

The subject of assay [2] is type I 5α-reductase. To be noted: Andersson et al. 1991; cited from earlier work.
For assay [3], the system named is prostate. To be noted: men; Imperato-McGinley et al. 1989; cited from earlier work.
Assay [4] has as its system intraprostatic DHT. As to conditions: men; Imperato-McGinley et al. 1989; cited from earlier work.
In assay [5] the test system is type II 5α-reductase. As to conditions: Andersson et al. 1991; cited from earlier work.
For assay [6], the system named is ventral prostate. As to conditions: rat; Brooks et al. 1981; cited from earlier work.
Assay [7] concerns 5α-reductase. As to conditions: Liang et al. 1981; cited from earlier work.
Assay [8] deals with rat prostate. As to conditions: in vitro and in vivo; Brooks et al. 1981; cited from earlier work.

pKi: −log10 of the molar value.

As a reminder, the pKi is the Ki on a negative log10 scale, so that one unit is a factor of ten. With `CC(C)CN(C=O)[C@H]1CC[C@H]2[C@@H]3CC[C@H]4N(C)C(=O)CC[C@]4(C)[C@H]3CC[C@]12C` [EM 422, 17β-(N-iso-Butyl-N-formamido)-4-methyl-4-aza-5-androstan-3-one], the negative logarithm of the Ki (pKi) in assay [1] is 8.14.
For `CC(C)(C)NC(=O)[C@H]1CC[C@H]2[C@@H]3CC[C@H]4NC(=O)C=C[C@]4(C)[C@H]3CC[C@]12C` [MK-906], in assay [2], the “inhibition of the type I enzyme” value is recorded as “weak inhibitor of the type I enzyme”. Moreover, the “reduction in prostatic size” value in assay [3] is recorded as 25-30%. Besides, the “intraprostatic concentration of DHT” value in assay [4] was “reduction in the intraprostatic concentration of DHT”. Moreover, the “inhibition of the type II enzyme” value in assay [5] is listed as “potent inhibitor of the type II enzyme”.
As for `CC(C)NC(=O)N(C1CC1)[C@H]1CC[C@H]2[C@@H]3CC[C@H]4N(C)C(=O)CC[C@]4(C)[C@H]3CC[C@]12C` [EM 396], the pKi in assay [1] was 7.85.
As for `CN1C(=O)CC[C@]2(C)[C@H]3CC[C@]4(C)[C@@H](N(C=O)C5CC5)CC[C@H]4[C@@H]3CC[C@@H]12` [EM 336, 17β-(N-Cyclopropyl-N-formamido)-4-methyl-4-aza-5α-androstan-3-one], the negative-log Ki (pKi) in assay [1] is 7.95.
Still for that read-out and setting: as for `CCCNC(=O)N(C1CC1)[C@H]1CC[C@H]2[C@@H]3CC[C@H]4N(C)C(=O)CC[C@]4(C)[C@H]3CC[C@]12C` [EM 390], the figure is 8.15.
Take `CCN(CC)C(=O)[C@H]1CC[C@H]2[C@@H]3CC[C@H]4N(C)C(=O)CC[C@]4(C)[C@H]3CC[C@]12C` [4-MA, N,N-diethyl-4-methyl-3-oxo-4-aza-5α-androstane-17β-carboxamide]: the “testosterone-induced increase in ventral prostate weight” value in assay [6] is reported as “reducing the testosterone-induced increase in ventral prostate weight”. Moreover, in assay [7], the 5α-reductase inhibition type entry was “reversible inhibitor of 5α-reductase”. In addition, in assay [8], the “inhibiting the formation of DHT from testosterone in rat prostate” value was “useful in inhibiting the formation of DHT from testosterone in rat prostate in vitro and in vivo”.
As for `CCCCNC(=O)N(C1CC1)[C@H]1CC[C@H]2[C@@H]3CC[C@H]4N(C)C(=O)CC[C@]4(C)[C@H]3CC[C@]12C` [EM 394], the pKi in assay [1] is 8.48.
Consider `CCC(CC)N(C=O)[C@H]1CC[C@H]2[C@@H]3CC[C@H]4N(C)C(=O)CC[C@]4(C)[C@H]3CC[C@]12C` [EM 407, 17β-(N-1-Ethylpropyl-N-formamido)-4-methyl-4-aza-5α-androstan-3-one], for which the pKi in assay [1] is 7.97.
Still for that read-out and setting: then `CN1C(=O)CC[C@]2(C)[C@H]3CC[C@]4(C)[C@@H](N(C=O)Cc5ccccc5)CC[C@H]4[C@@H]3CC[C@@H]12` [EM 436, 17β-(N-Benzyl-N-formamido)-4-methyl-4-aza-5α-androstan-3-one], with 8.25.
Still for that read-out and setting: then `CCCCCCN(C=O)[C@H]1CC[C@H]2[C@@H]3CC[C@H]4N(C)C(=O)CC[C@]4(C)[C@H]3CC[C@]12C` [EM 402, 17β-(N-n-Hexyl-N-formamido)-4-methyl-4-aza-5α-androstan-3-one], with 8.14; and `CC(C)CCN(C=O)[C@H]1CC[C@H]2[C@@H]3CC[C@H]4N(C)C(=O)CC[C@]4(C)[C@H]3CC[C@]12C` [EM 405, 17β-(N-iso-Amyl-N-formamido)-4-methyl-4-aza-5α-androstan-3-one], with 8.66; and `CNC(=O)N(C1CC1)[C@H]1CC[C@H]2[C@@H]3CC[C@H]4N(C)C(=O)CC[C@]4(C)[C@H]3CC[C@]12C` [EM 373, 17β-N-(1N-cyclopropyl-2N-methylurea)-4-methyl-4-aza-5α-androstan-3-one], with 9.30.
In turn, `CN1C(=O)CC[C@]2(C)[C@H]3CC[C@]4(C)[C@@H](N(C(=O)Nc5ccccc5)C5CC5)CC[C@H]4[C@@H]3CC[C@@H]12` [EM 374, 17β-N-(1N-cyclopropyl-2N-phenylurea)-4-methyl-4-aza-5α-androstan-3-one] showed a negative-log Ki (pKi) in assay [1] of 8.64.
`CCCCN(C(C)=O)[C@H]1CC[C@H]2[C@@H]3CC[C@H]4N(C)C(=O)CC[C@]4(C)[C@H]3CC[C@]12C` [EM 424, 17β-(N-n-butyl-N-acetamido)-4-methyl-4-aza-5α-androstan-3-one]: the negative-log Ki (pKi) in assay [1] was 7.93.
The same measure, in the same setting: then `CCCCCN(C=O)[C@H]1CC[C@H]2[C@@H]3CC[C@H]4N(C)C(=O)CC[C@]4(C)[C@H]3CC[C@]12C` [EM 401, 17β(N-n-Amyl-N-formamido)-4-methyl-4-aza-5α-androstan-3-one], with 8.74; and `CN(C(=O)Nc1ccccc1)[C@H]1CC[C@H]2[C@@H]3CC[C@H]4N(C)C(=O)CC[C@]4(C)[C@H]3CC[C@]12C` [EM 408, 17βN-(1N-methyl-2N-phenylurea)-4-methyl-4-aza-5α-androstan-3-one], with 8.09.
On to `CCNC(=O)N(C1CC1)[C@H]1CC[C@H]2[C@@H]3CC[C@H]4N(C)C(=O)CC[C@]4(C)[C@H]3CC[C@]12C` [EM 392, 17βN-(1N-cyclopropyl-2N-ethylurea)-4-methyl-4-aza-5α-androstan-3-one], for which the pKi in assay [1] is 7.87.
On the same count and under the same terms, then `CN(C=O)[C@H]1CC[C@H]2[C@@H]3CC[C@H]4N(C)C(=O)CC[C@]4(C)[C@H]3CC[C@]12C` [EM 316, 17β-(N-methyl-N-formamido)-4-methyl-4-aza-5α-androstan-3-one], with 7.54; and `CCCCN(C=O)[C@H]1CC[C@H]2[C@@H]3CC[C@H]4N(C)C(=O)CC[C@]4(C)[C@H]3CC[C@]12C` [EM 347, 17β-(N-n-butyl-N-formamido)-4-methyl-4-aza-5α-androstan-3-one], with 8.59.
Same read-out and setting: then `CCCN(C=O)[C@H]1CC[C@H]2[C@@H]3CC[C@H]4N(C)C(=O)CC[C@]4(C)[C@H]3CC[C@]12C` [EM 423, 17β-(N-n-propyl-N-formamido)-4-methyl-4-aza-5α-androstan-3-one], with 8.29; and `CN1C(=O)CC[C@]2(C)[C@H]3CC[C@]4(C)[C@@H](N(C=O)C5CCCCC5)CC[C@H]4[C@@H]3CC[C@@H]12` [EM 337, 17β-(N-Cyclohexyl-N-formamido)-4-methyl-4-aza-5α-androstan-3-one], with 7.92.
On the same count and under the same terms, as for `CN1C(=O)CC[C@]2(C)[C@H]3CC[C@]4(C)[C@@H](N(C(=O)NC5CCCCC5)C5CC5)CC[C@H]4[C@@H]3CC[C@@H]12` [EM 397], the figure is 8.49.
